Source: ChEMBL document CHEMBL6096735, “Exploring the Ascorbate Requirement of the 2-Oxoglutarate-Dependent Dioxygenases” (J Med Chem, 2025)

Target: Methylcytosine dioxygenase TET2 (Homo sapiens) (UniProt Q6N021)
Experiment: Binding affinity to TET2 (unknown origin) assessed as binding constant

Row | SMILES | Kb
1 | O=C1O[C@H]([C@@H](O)CO)C(O)=C1O | 8.7 10^3/M
2 | O=C1O[C@H]([C@H](O)CO)C(O)=C1O | 8.7 10^3/M
